This is an account of results in patent US8470810B2, “Heterocyclic compounds suitable for treating disorders that respond to modulation of the dopamine D3 receptor” (Abbott GmbH & Co. KG, priority 2004, dated 2013).

What is called Ki is the equilibrium dissociation constant of an inhibitor or competing ligand from its target.

The target of test [1] is T1, human dopamine D2L receptors (long isoform) (Homo sapiens, UniProt P14416).
T1 construct: expressed in transfected cells
Description: Dopamine D2L receptor binding, displacement of [125I] iodospiperone. The conditions noted are these: membranes of HEK-293 cells stably expressing human D2L; 0.01 nM [125I] iodospiperone; 25° C., 60 minutes; read-out: Ki(D2)*. The protocol: (§1) The substance to be tested was either dissolved in methanol/Chremophor® (BASFAG) or in dimethyl sulfoxide and then diluted with water to the desired concentration.
(§2) Each assay mixture was run in triplicate.
The incubation buffer contained 50 mM tris, 120 mM NaCl, 5 mM KCl, 2 mM CaCl2, 2 mM MgCl2 and 0.1% bovine serum albumin. The buffer was adjusted to pH 7.4 with HCl.
(§3) After having been incubated at 25° C. for 60 minutes, the assay mixtures were filtered through a Whatman GF/B glass fiber filter under vacuum using a cell collecting device. The filters were transferred to scintillation viols using a filter transfer system. After 4 ml of Ultima Gold® (Packard) have been added, the samples were shaken for one hour and the radioactivity was then counted in a Beta-Counter (Packard, Tricarb 2000 or 2200CA). The cpm values were converted into dpm using a standard quench series and the program belonging to the instrument.
(§4) The inhibition curves were analyzed by means of iterative nonlinear regression analysis using the Statistical Analysis System (SAS) which is similar to the “LIGAND” program described by Munson and Rodbard.
(§5) The results of the receptro binding studies are expressed as receptor binding constants Ki(D2) and Ki(D3), respectively, as herein before described, and given in table 6.

The target of test [2] is T2, human dopamine D3 receptors (Homo sapiens, UniProt P35462).
T2 construct: expressed in transfected cells
Description: Dopamine D3 receptor binding, displacement of [125I]-iodosulpride. The conditions noted are these: for Ki: membranes of HEK-293 cells stably expressing human D3, 0.1 nM [125I]-iodosulpride, 25° C., 60 minutes; for Ki(D2)*/Ki(D3)*: selectivity ratio of the receptor binding constants D2 over D3. The method, then:
as §1, §2
The incubation buffer contained 50 mM tris, 120 mM NaCl, 5 mM KCl, 2 mM CaCl2, 2 mM MgCl2 and 0.1% bovine serum albumin, 10 μM quinolone and 0.1% ascorbic acid (prepared fresh daily). The buffer was adjusted to pH 7.4 with HCl.
as §3, §4, §5

T1 sequence (P14416 whole entry, canonical isoform): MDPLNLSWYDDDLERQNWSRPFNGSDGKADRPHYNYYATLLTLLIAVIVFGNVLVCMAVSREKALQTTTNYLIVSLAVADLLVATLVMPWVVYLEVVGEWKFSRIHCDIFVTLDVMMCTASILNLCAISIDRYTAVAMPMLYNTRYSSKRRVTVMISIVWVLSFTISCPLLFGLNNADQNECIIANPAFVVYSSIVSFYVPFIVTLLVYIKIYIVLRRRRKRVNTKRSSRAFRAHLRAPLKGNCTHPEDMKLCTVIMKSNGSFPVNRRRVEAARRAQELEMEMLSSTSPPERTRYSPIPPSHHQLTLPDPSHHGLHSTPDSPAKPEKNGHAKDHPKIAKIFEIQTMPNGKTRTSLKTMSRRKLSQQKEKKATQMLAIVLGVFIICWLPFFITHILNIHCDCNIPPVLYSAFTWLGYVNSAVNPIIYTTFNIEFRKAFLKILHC
T2 sequence (P35462 whole entry): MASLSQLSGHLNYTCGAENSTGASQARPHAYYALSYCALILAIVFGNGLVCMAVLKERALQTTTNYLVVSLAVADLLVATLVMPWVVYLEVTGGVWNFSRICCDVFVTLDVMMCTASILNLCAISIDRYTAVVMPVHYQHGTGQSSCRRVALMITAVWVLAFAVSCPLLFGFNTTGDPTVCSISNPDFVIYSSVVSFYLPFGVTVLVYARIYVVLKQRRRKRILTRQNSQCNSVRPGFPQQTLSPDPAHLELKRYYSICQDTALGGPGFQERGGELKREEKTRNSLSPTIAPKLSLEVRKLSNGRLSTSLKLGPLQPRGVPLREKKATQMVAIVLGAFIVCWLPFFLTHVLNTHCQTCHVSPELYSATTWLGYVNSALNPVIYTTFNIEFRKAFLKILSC

`CCCN1CCC(c2ccc(NS(=O)(=O)c3ccc(C(C)C)cc3)cn2)C1` (single isomer, unassigned; (-)) [Example 131, (−)-N-[6-(1-Propyl-pyrrolidin-3-yl)-pyridin-3-yl]-4-isopropyl-benzene-sulfonamide]: the Ki in test [1] came out at 430 nM. Besides, in test [2], the affinity, expressed as Ki, was 5.8 nM and the “Ki(D2)*/Ki(D3)*” value was 74.
With `CCCN1CC[C@@H](c2ccc(NS(=O)(=O)c3ccc(C(C)C)cc3)cc2)C1.Cl` [Example 1, 4-Isopropyl-N-[4-((S)-1-propyl-pyrrolidin-3-yl)-phenyl]-benzenesulfonamide hydrochloride], in test [1], the Ki is 7.6 nM. In test [2], the Ki came to 0.09 nM and the “Ki(D2)*/Ki(D3)*” value amounted to 89.
Consider `CCCN1CC[C@@H](c2ccc(NS(=O)(=O)c3ccc(C(C)(C)CC)cc3)cc2)C1.Cl` [Example 2, 4-(1,1-Dimethyl-propyl)-N-[4-((S)-1-propyl-pyrrolidin-3-yl)-phenyl]-benzenesulfonamide hydrochloride], for which the Ki in test [1] was determined as 2.3 nM. Moreover, in test [2], the Ki is 0.24 nM and the “Ki(D2)*/Ki(D3)*” value was 9.
`C=CCN1CC[C@@H](c2ccc(NS(=O)(=O)c3ccc(C(C)C)cc3)cc2)C1.Cl` [Example 3, 4-(Isopropyl)-N-[4-((S)-1-allyl-pyrrolidin-3-yl)-phenyl]-benzenesulfonamide hydrochloride]: the results for the Ki in test [1] and in test [2] were 13.8 nM and 0.17 nM, respectively. In addition, in test [2], the “Ki(D2)*/Ki(D3)*” value came out at 91.
For `C=CCN1CC[C@H](c2ccc(NS(=O)(=O)c3ccc(C(C)C)cc3)cc2)C1.Cl` [Example 4, 4-(Isopropyl)-N-[4-((R)-1-allyl-pyrrolidin-3-yl)-phenyl]-benzenesulfonamide hydrochloride], the figures for the Ki in test [1] and in test [2] were 403 nM and 3.16 nM, respectively. The “Ki(D2)*/Ki(D3)*” value in test [2] amounted to 127.
`CCCN1CC[C@H](c2ccc(NS(=O)(=O)c3ccc(C(C)C)cc3)cc2)C1.Cl` [Example 5, 4-(Isopropyl)-N-[4-((R)-1-propyl-pyrrolidin-3-yl)-phenyl]benzenesulfonamide hydrochloride]: the Ki in test [1] was 267 nM. Also, in test [2], the Ki is 2.9 nM and the “Ki(D2)*/Ki(D3)*” value amounted to 93.
For `CCCN1CC[C@@H](c2ccc(NS(=O)(=O)c3ccc(CC)cc3)cc2)C1.Cl` [Example 6, 4-Ethyl-N-[4-((S)-1-propyl-pyrrolidin-3-yl)-phenyl]-benzenesulfonamide hydrochloride] the same measures were 20.1 nM, 0.45 nM and 45.
`CCCN1CC(c2ccc(NS(=O)(=O)c3ccc(CCC(F)(F)F)cc3)cc2)C1` [Example 61, N-[4-(1-Propyl-azetidin-3-yl)-phenyl]-4-(3,3,3-trifluoro-propyl)-benzenesulfonamide]: the affinity in test [2] corresponds to a Ki of 21.3 nM.
Take `CCCN1CCC(c2ccc(NS(=O)(=O)c3ccc(C(C)C)cc3)c(F)c2)C1.Cl` (stereo not drawn) [Example 134, N-[2-Fluoro-4-(1-propyl-pyrrolidin-3-yl)-phenyl]-4-isopropyl-benzenesulfonamide, hydrochloride]: in test [2], the Ki came to 0.76 nM and the “Ki(D2)*/Ki(D3)*” value was 13.
`CC(=O)O.COc1cc(C2CCNC2)ccc1NS(=O)(=O)c1ccc(C(C)C)cc1` (stereo not drawn) [Example 135, 4-Isopropyl-N-(2-methoxy-4-pyrrolidin-3-yl-phenyl)-benzenesulfonamide, acetate]: in test [2], the Ki stood at 0.85 nM and the “Ki(D2)*/Ki(D3)*” value is 17.
`CCCN1CCC(c2ccc(NS(=O)(=O)c3ccc(C(C)C)cc3)c(OC)c2)C1.Cl` (stereo not drawn) [Example 136, 4-Isopropyl-N-[2-methoxy-4-(1-propyl-pyrrolidin-3-yl)-phenyl]-benzenesulfonamide, hydrochloride]: in test [2], the affinity corresponds to a Ki of 0.27 nM and the “Ki(D2)*/Ki(D3)*” value stood at 6.
In the case of `C=CCN1CCC(c2ccc(NS(=O)(=O)c3ccc(C(C)C)cc3)c(OC)c2)C1.Cl` (stereo not drawn) [Example 137, N-[4-(1-Allyl-pyrrolidin-3-yl)-2-methoxy-phenyl]-4-isopropyl-benzenesulfonamide, hydrochloride], in test [2], the Ki came to 0.36 nM and the “Ki(D2)*/Ki(D3)*” value turned out to be 12.
